Source: ChEMBL document CHEMBL3853300, “Synthesis of α-santonin derived acetyl santonous acid triazole derivatives and their bioevaluation for T and B-cell proliferation” (Eur J Med Chem, 2016)

Legend:
Mus musculus [1] = organism: Mus musculus; experiment: Cytotoxicity against Balb/c mouse B cells assessed as decrease in cell viability at 100 uM after 48 hrs by MTT assay; format: toxicity, cell-based
Mus musculus [2] = organism: Mus musculus; experiment: Cytotoxicity against Balb/c mouse B cells assessed as decrease in cell viability at 10 uM after 48 hrs by MTT assay; format: toxicity, cell-based
Mus musculus [3] = organism: Mus musculus; experiment: Cytotoxicity against Balb/c mouse B cells assessed as decrease in cell viability at 1 uM after 48 hrs by MTT assay; format: toxicity, cell-based
Mus musculus [4] = organism: Mus musculus; experiment: Cytotoxicity against Balb/c mouse T cells assessed as decrease in cell viability at 100 uM after 48 hrs by MTT assay; format: toxicity, cell-based
Mus musculus [5] = organism: Mus musculus; experiment: Cytotoxicity against Balb/c mouse T cells assessed as decrease in cell viability at 10 uM after 48 hrs by MTT assay; format: toxicity, cell-based
Mus musculus [6] = organism: Mus musculus; experiment: Cytotoxicity against Balb/c mouse T cells assessed as decrease in cell viability at 1 uM after 48 hrs by MTT assay; format: toxicity, cell-based
[7] = Immunosuppressive activity in Balb/c mouse T cells assessed as inhibition of ConA-induced cell proliferation at 100 uM after 48 hrs by MTT assay relative to control; format: functional
[8] = Immunosuppressive activity in Balb/c mouse B cells assessed as inhibition of LPS-induced cell proliferation at 100 uM after 48 hrs by MTT assay relative to control; format: functional
[9] = Immunosuppressive activity in Balb/c mouse B cells assessed as inhibition of LPS-induced cell proliferation at 10 uM after 48 hrs by MTT assay relative to control; format: functional
[10] = Immunosuppressive activity in Balb/c mouse B cells assessed as inhibition of LPS-induced cell proliferation at 1 uM after 48 hrs by MTT assay relative to control; format: functional
T-cell = experiment: Immunosuppressive activity in Balb/c mouse T cells assessed as inhibition of ConA-induced cell proliferation after 48 hrs by MTT assay relative to control; format: functional, cell-based
[11] = Immunosuppressive activity in Balb/c mouse T cells assessed as inhibition of ConA-induced cell proliferation at 10 uM after 48 hrs by MTT assay relative to control; format: functional
[12] = Immunosuppressive activity in Balb/c mouse T cells assessed as inhibition of ConA-induced cell proliferation at 1 uM after 48 hrs by MTT assay relative to control; format: functional
B = experiment: Immunosuppressive activity in Balb/c mouse B cells assessed as inhibition of LPS-induced cell proliferation after 48 hrs by MTT assay relative to control; format: functional, cell-based
[13] = Immunostimulatory activity in Balb/c mouse T cells assessed as induction of ConA-induced cell proliferation at 10 uM after 48 hrs by MTT assay relative to control; format: cell-based

## CC(=O)Oc1cc(C)c2c(c1C)[C@@H]1OC(=O)[C@@H](C)[C@@H]1CC2
Mus musculus [1]
  Activity: Non-Toxic
Mus musculus [2]
  Activity: Toxic
Mus musculus [3]
  Activity: Toxic
Mus musculus [4]
  Activity: Non-Toxic
Mus musculus [5]
  Activity: Toxic
Mus musculus [6]
  Activity: Toxic
[7]
  inhibition at 100 µM: 75%
[8]
  inhibition at 100 µM: 70%
[9]
  inhibition at 10 µM: 44.3%
[10]
  inhibition at 1 µM: 61.8%
T-cell
  inhibition: Dose-dependent effect
[11]
  inhibition at 10 µM: 49.2%
[12]
  inhibition at 1 µM: 47.7%
B
  inhibition: Dose-dependent effect

## CCCCn1cc(COC(=O)[C@H](C)[C@@H]2CCc3c(C)cc(OC(C)=O)c(C)c3C2)nn1
Mus musculus [1]
  Activity: Toxic
Mus musculus [2]
  Activity: Toxic
Mus musculus [3]
  Activity: Non-Toxic
Mus musculus [4]
  Activity: Toxic
Mus musculus [5]
  Activity: Toxic
Mus musculus [6]
  Activity: Non-Toxic
[7]
  inhibition at 100 µM: 41.3%
[8]
  inhibition at 100 µM: 44.2%
[9]
  inhibition at 10 µM: 29.9%
[10]
  inhibition at 1 µM: 31.2%
T-cell
  inhibition: Dose-dependent effect
[11]
  inhibition at 10 µM: 24%
[12]
  inhibition at 1 µM: 21.4%
B
  inhibition: Dose-dependent effect

## CC(=O)Oc1cc(C)c2c(c1C)C[C@H]([C@@H](C)C(=O)OCc1cn(-c3ccc(O)cc3C)nn1)CC2
Mus musculus [1]
  Activity: Toxic
Mus musculus [2]
  Activity: Non-Toxic
Mus musculus [3]
  Activity: Non-Toxic
Mus musculus [4]
  Activity: Toxic
Mus musculus [5]
  Activity: Non-Toxic
Mus musculus [6]
  Activity: Non-Toxic
[7]
  inhibition at 100 µM: 54.7%
[8]
  inhibition at 100 µM: 79.7%
[9]
  inhibition at 10 µM: 77.1%
[10]
  inhibition at 1 µM: 68.8%
T-cell
  inhibition: Dose-dependent effect
[12]
  inhibition at 1 µM: 22.7%
[13]
  Activity: 1.33%
B
  inhibition: Dose-dependent effect

## CC(=O)Oc1cc(C)c2c(c1C)C[C@H]([C@@H](C)C(=O)OCc1cn(-c3ccc(C(=O)c4ccccc4)cc3)nn1)CC2
Mus musculus [1]
  Activity: Toxic
Mus musculus [2]
  Activity: Toxic
Mus musculus [3]
  Activity: Non-Toxic
Mus musculus [4]
  Activity: Toxic
Mus musculus [5]
  Activity: Toxic
Mus musculus [6]
  Activity: Non-Toxic
[7]
  inhibition at 100 µM: 20%
[8]
  inhibition at 100 µM: 81.2%
[9]
  inhibition at 10 µM: 75%
[10]
  inhibition at 1 µM: 69.3%
T-cell
  inhibition: Dose-dependent effect
[11]
  inhibition at 10 µM: 28%
[12]
  inhibition at 1 µM: 5.33%
B
  inhibition: Dose-dependent effect

## CC(=O)Oc1cc(C)c2c(c1C)C[C@H]([C@@H](C)C(=O)OCc1cn(-c3ccc4c(c3)OCO4)nn1)CC2
Mus musculus [1]
  Activity: Non-Toxic
Mus musculus [2]
  Activity: Toxic
Mus musculus [3]
  Activity: Non-Toxic
Mus musculus [4]
  Activity: Non-Toxic
Mus musculus [5]
  Activity: Toxic
Mus musculus [6]
  Activity: Non-Toxic
[7]
  inhibition at 100 µM: 32.4%
[8]
  inhibition at 100 µM: 22.3%
[9]
  inhibition at 10 µM: 33.9%
[10]
  inhibition at 1 µM: 40.6%
T-cell
  inhibition: Dose-dependent effect
[12]
  inhibition at 1 µM: 27.8%
[13]
  Activity: 16.66%
B
  inhibition: Dose-dependent effect

## COc1ccccc1-n1cc(COC(=O)[C@H](C)[C@@H]2CCc3c(C)cc(OC(C)=O)c(C)c3C2)nn1
Mus musculus [1]
  Activity: Non-Toxic
Mus musculus [2]
  Activity: Non-Toxic
Mus musculus [3]
  Activity: Toxic
Mus musculus [4]
  Activity: Non-Toxic
Mus musculus [5]
  Activity: Non-Toxic
Mus musculus [6]
  Activity: Toxic
[7]
  inhibition at 100 µM: 29.4%
[8]
  inhibition at 100 µM: 6.59%
[9]
  inhibition at 10 µM: 32.4%
[10]
  inhibition at 1 µM: 27.5%
T-cell
  inhibition: Dose-dependent effect
[11]
  inhibition at 10 µM: 33.1%
[12]
  inhibition at 1 µM: 8.08%
B
  inhibition: Dose-dependent effect

## C#CCOC(=O)[C@H](C)[C@@H]1CCc2c(C)cc(OC(C)=O)c(C)c2C1
Mus musculus [1]
  Activity: Non-Toxic
Mus musculus [2]
  Activity: Toxic
Mus musculus [3]
  Activity: Non-Toxic
Mus musculus [4]
  Activity: Non-Toxic
Mus musculus [5]
  Activity: Toxic
Mus musculus [6]
  Activity: Non-Toxic
[7]
  inhibition at 100 µM: 71.5%
[8]
  inhibition at 100 µM: 69.7%
[9]
  inhibition at 10 µM: 59.3%
[10]
  inhibition at 1 µM: 57.8%
T-cell
  inhibition: Dose-dependent effect
[11]
  inhibition at 10 µM: 51.2%
[12]
  inhibition at 1 µM: 41.7%
B
  inhibition: Dose-dependent effect
